System: PARP1 cleavage in HEL cells
Assay: PARP1 cleavage Western blot (apoptosis), HEL
Format: cell-based
Conditions: 5 μM
Experimental: Cell lysates were produced with RIPA lysis buffer (50 mM Tris pH 7.4, 150 mM sodium chloride, 1 mM EDTA, 1% Triton-X, 15% glycerol, 0.5% sodium deoxycholate, and protease/phosphatase inhibitors). Protein concentrations were determined by the Bradford Protein Assay using a Nanodrop Spectrometer (NanoDrop 2000/2000c system, Thermo Fisher Scientific, Darmstadt, Germany) at 595 nm. To 25 μg of protein lysates was added 4xLämmli sample buffer, followed by denaturing at 65° C. for 5 min and introduction into the SDS-Page. The proteins were transferred by the wet blot method in Towbin buffer (3 g Tris, 14.4 g glycine, 5% methanol per litre of ddH2O) to a PVDF membrane at 100 mA overnight. The membrane was blocked with 10% BSA in TBS-T buffer (20 mM Tris-HCl, pH 7.6, 137 mM NaCl, 0.05% IGEPAL). The primary antibodies were incubated at 4° C. overnight, and the HRP-labelled antibodies at room temperature with the membrane for […]. The proteins were detected by means of PCA-ECL solution using a chemiluminescence detector (Fusion SL, PeqLab).
In addition, a possible induction of apoptosis in the cell lines described by compound MF2 was examined. […] Protein concentrations were determined with the Bradford protein assay using a Nanodrop Spectrometer at 595 nm. […] The proteins were detected by means of PCA-ECL solution using a chemiluminescence detector (Fusion SL, PeqLab). […]

CN1Cc2cc(N=[S@@](C)(=O)c3ccccc3)ccc2NC1=O [MF2-S, (S)—N-(3-methyl-2-oxo-1,2,3,4-tetrahydroquinazolin-6-yl)-S-methyl-S-phenylsulfoximine]
band for the PARP1 cleavage product, HEL (48 h, compared to PFI-1): more marked in HEL cells than in the case of PFI-1 treatment
induction of apoptosis, HEL (compared to MF2, MF2-R, PFI-1): induced apoptosis more strongly than the other compounds examined
